Test results from the NIST ThermoML archive (doi:10.1021/je800110r).
± gives the expanded uncertainty stated by the source.

Settings: 283.15 K, Liquid, Vibrating tube method

CCCCCCCCCC [decane]
Settings	mass density [kg/m3]
11428 kPa	745.5 ± 2
11443 kPa	745.5 ± 2
11462 kPa	745.5 ± 2
11483 kPa	745.5 ± 2
11498 kPa	745.5 ± 2
11518 kPa	745.4 ± 2
11530 kPa	745.6 ± 2
11543 kPa	745.5 ± 2
11625 kPa	745.7 ± 2
11647 kPa	745.7 ± 2
11663 kPa	745.7 ± 2
11681 kPa	745.6 ± 2
11774 kPa	745.8 ± 2
11790 kPa	745.8 ± 2
11806 kPa	745.8 ± 2
11824 kPa	745.8 ± 2
11838 kPa	745.7 ± 2
11856 kPa	745.8 ± 2
11876 kPa	745.9 ± 2
11889 kPa	745.8 ± 2
11904 kPa	745.8 ± 2
11924 kPa	745.9 ± 2
11943 kPa	745.8 ± 2
11954 kPa	745.8 ± 2
11969 kPa	745.9 ± 2
11982 kPa	746 ± 2
11997 kPa	745.9 ± 2
12010 kPa	746 ± 2
12024 kPa	745.9 ± 2
12038 kPa	746 ± 2
12052 kPa	745.9 ± 2
12068 kPa	745.9 ± 2
12080 kPa	746 ± 2
12094 kPa	745.9 ± 2
12108 kPa	746 ± 2
12130 kPa	746 ± 2
12149 kPa	746 ± 2
12165 kPa	745.9 ± 2
12180 kPa	746.1 ± 2
12197 kPa	746 ± 2
12211 kPa	746 ± 2
12226 kPa	746 ± 2
12241 kPa	745.9 ± 2
12262 kPa	746.1 ± 2
12280 kPa	746.1 ± 2
12300 kPa	746 ± 2
12319 kPa	746.1 ± 2
12339 kPa	746.1 ± 2
12356 kPa	746.1 ± 2
12371 kPa	746.1 ± 2
12386 kPa	746.2 ± 2
12401 kPa	746.1 ± 2
12415 kPa	746.2 ± 2
12431 kPa	746.2 ± 2
12451 kPa	746.3 ± 2
12469 kPa	746.2 ± 2
12484 kPa	746.2 ± 2
12505 kPa	746.2 ± 2
12519 kPa	746.2 ± 2
12535 kPa	746.3 ± 2
12550 kPa	746.3 ± 2
12571 kPa	746.3 ± 2
12588 kPa	746.3 ± 2
12602 kPa	746.3 ± 2
12618 kPa	746.3 ± 2
12633 kPa	746.3 ± 2
12649 kPa	746.3 ± 2
12665 kPa	746.3 ± 2
12678 kPa	746.3 ± 2
12693 kPa	746.4 ± 2
12709 kPa	746.4 ± 2
12725 kPa	746.3 ± 2
12741 kPa	746.3 ± 2
12756 kPa	746.4 ± 2
12772 kPa	746.5 ± 2
12794 kPa	746.4 ± 2
12812 kPa	746.3 ± 2
12837 kPa	746.4 ± 2
12855 kPa	746.5 ± 2
12877 kPa	746.5 ± 2
12895 kPa	746.6 ± 2
12914 kPa	746.5 ± 2
12933 kPa	746.5 ± 2
12955 kPa	746.4 ± 2
12972 kPa	746.5 ± 2
12994 kPa	746.6 ± 2
13013 kPa	746.5 ± 2
13033 kPa	746.5 ± 2
13052 kPa	746.5 ± 2
13075 kPa	746.5 ± 2
13095 kPa	746.6 ± 2
13117 kPa	746.6 ± 2
13316 kPa	746.8 ± 2
13337 kPa	746.7 ± 2
13598 kPa	746.9 ± 2
13632 kPa	746.9 ± 2
13652 kPa	747 ± 2
13673 kPa	747 ± 2
13697 kPa	746.9 ± 2
13715 kPa	747 ± 2
13740 kPa	747 ± 2
13765 kPa	747.1 ± 2
13787 kPa	747.1 ± 2
13809 kPa	747 ± 2
13831 kPa	747.1 ± 2
13856 kPa	747 ± 2
13875 kPa	747.2 ± 2
13901 kPa	747.1 ± 2
13923 kPa	747.1 ± 2
13949 kPa	747.1 ± 2
13968 kPa	747.2 ± 2
13994 kPa	747.2 ± 2
14017 kPa	747.2 ± 2
14039 kPa	747.2 ± 2
14062 kPa	747.3 ± 2
14088 kPa	747.2 ± 2
14138 kPa	747.2 ± 2
14164 kPa	747.3 ± 2
14191 kPa	747.4 ± 2
14216 kPa	747.4 ± 2
14359 kPa	747.4 ± 2
14385 kPa	747.5 ± 2
14411 kPa	747.4 ± 2
14428 kPa	747.6 ± 2
14446 kPa	747.5 ± 2
14481 kPa	747.5 ± 2
14499 kPa	747.5 ± 2
14528 kPa	747.6 ± 2
14543 kPa	747.6 ± 2
14563 kPa	747.5 ± 2
14578 kPa	747.6 ± 2
14599 kPa	747.6 ± 2
14614 kPa	747.6 ± 2
14632 kPa	747.6 ± 2
14650 kPa	747.6 ± 2
14668 kPa	747.7 ± 2
14686 kPa	747.7 ± 2
14704 kPa	747.6 ± 2
14722 kPa	747.7 ± 2
14741 kPa	747.7 ± 2
14759 kPa	747.7 ± 2
14777 kPa	747.6 ± 2
14795 kPa	747.6 ± 2
14826 kPa	747.7 ± 2
14844 kPa	747.7 ± 2
14862 kPa	747.7 ± 2
14881 kPa	747.8 ± 2
14903 kPa	747.7 ± 2
14925 kPa	747.8 ± 2
14941 kPa	747.8 ± 2
14963 kPa	747.8 ± 2
14979 kPa	747.8 ± 2
14998 kPa	747.9 ± 2
15017 kPa	748 ± 2
15036 kPa	747.9 ± 2
15055 kPa	747.9 ± 2
15077 kPa	747.9 ± 2
15100 kPa	747.8 ± 2
15119 kPa	747.9 ± 2
15139 kPa	747.9 ± 2
15239 kPa	748 ± 2
15312 kPa	748 ± 2
15351 kPa	748.1 ± 2
15368 kPa	748.1 ± 2
15391 kPa	748.2 ± 2
15415 kPa	748 ± 2
15442 kPa	748.1 ± 2
15466 kPa	748.3 ± 2
15486 kPa	748.1 ± 2
15507 kPa	748.2 ± 2
15524 kPa	748.3 ± 2
15545 kPa	748.3 ± 2
15569 kPa	748.3 ± 2
15590 kPa	748.2 ± 2
15617 kPa	748.3 ± 2
15645 kPa	748.4 ± 2
15669 kPa	748.2 ± 2
15693 kPa	748.3 ± 2
15718 kPa	748.3 ± 2
15743 kPa	748.2 ± 2
15771 kPa	748.4 ± 2
15799 kPa	748.3 ± 2
15821 kPa	748.3 ± 2
15850 kPa	748.3 ± 2
15874 kPa	748.4 ± 2
15899 kPa	748.4 ± 2
15920 kPa	748.6 ± 2
15949 kPa	748.5 ± 2
15981 kPa	748.6 ± 2
16007 kPa	748.4 ± 2
16028 kPa	748.6 ± 2
16083 kPa	748.6 ± 2
16109 kPa	748.6 ± 2
16135 kPa	748.5 ± 2
16168 kPa	748.6 ± 2
16191 kPa	748.6 ± 2
16221 kPa	748.6 ± 2
16257 kPa	748.7 ± 2
16288 kPa	748.7 ± 2
16310 kPa	748.7 ± 2
16344 kPa	748.8 ± 2
16378 kPa	748.7 ± 2
16405 kPa	748.8 ± 2
16433 kPa	748.8 ± 2
16467 kPa	748.7 ± 2
16494 kPa	748.9 ± 2
16528 kPa	748.8 ± 2
16560 kPa	748.9 ± 2
16587 kPa	749 ± 2
16619 kPa	748.8 ± 2
16643 kPa	749 ± 2
16667 kPa	749 ± 2
16703 kPa	748.8 ± 2
16739 kPa	749 ± 2
16759 kPa	748.8 ± 2
16796 kPa	749 ± 2
16824 kPa	749 ± 2
16852 kPa	749.1 ± 2
16880 kPa	749 ± 2
16905 kPa	748.9 ± 2
16938 kPa	749.2 ± 2
16967 kPa	749.2 ± 2
16993 kPa	749.1 ± 2
17030 kPa	749.2 ± 2
17063 kPa	749.1 ± 2
17088 kPa	749.1 ± 2
17127 kPa	749.2 ± 2
17153 kPa	749.2 ± 2
17192 kPa	749.2 ± 2
17213 kPa	749.3 ± 2
17240 kPa	749.3 ± 2
17267 kPa	749.4 ± 2
17293 kPa	749.4 ± 2
17316 kPa	749.4 ± 2
17343 kPa	749.4 ± 2
17366 kPa	749.5 ± 2
17390 kPa	749.4 ± 2
17422 kPa	749.4 ± 2
17451 kPa	749.3 ± 2
17470 kPa	749.5 ± 2
17498 kPa	749.4 ± 2
17521 kPa	749.4 ± 2
17549 kPa	749.4 ± 2
17626 kPa	749.5 ± 2
17652 kPa	749.5 ± 2
17711 kPa	749.6 ± 2
17734 kPa	749.6 ± 2
17770 kPa	749.5 ± 2
17792 kPa	749.7 ± 2
17815 kPa	749.7 ± 2
17841 kPa	749.8 ± 2
17864 kPa	749.7 ± 2
17898 kPa	749.9 ± 2
17925 kPa	749.6 ± 2
17948 kPa	749.7 ± 2
17982 kPa	749.9 ± 2
18017 kPa	749.8 ± 2
18044 kPa	749.8 ± 2
18071 kPa	749.9 ± 2
18099 kPa	749.9 ± 2
18130 kPa	749.9 ± 2
18154 kPa	749.9 ± 2
18178 kPa	749.9 ± 2
18210 kPa	750 ± 2
18246 kPa	750 ± 2
18305 kPa	750 ± 2
18383 kPa	750 ± 2
18574 kPa	750.2 ± 2
18652 kPa	750.2 ± 2
18691 kPa	750.2 ± 2
18719 kPa	750.1 ± 2
18746 kPa	750.2 ± 2
18770 kPa	750.3 ± 2
18793 kPa	750.3 ± 2
